According to ChEMBL document CHEMBL6182898, “Design, synthesis and bioevaluation of novel hydrazide derivatives as enhancers of immunotherapy and DNA-damage response in antitumor therapy” (Eur J Med Chem, 2025):
The source made the active and inactive calls. The rule behind the calls is not given here.

What was measured:
B16-F10 [1] = assay: Antitumor activity against mouse B16-F10 cells implanted in male C57BL/6J mouse at 25 mg/kg, IG treated for 14 days consecutively in presence of NP-19 relative to control; format: functional; conditions: B16-F10, po, 336 h, time 14 day, read-out: TGI
[2] = Toxicity in male C57BL/6J mouse implanted with mouse B16-F10 cells assessed as histopathological damage in liver at 25 mg/kg, IG treated for 14 days consecutively in presence of NP-19 by H and E staining based analysis; format: organism-based; conditions: in vivo, po, 336 h, time 14 day
[3] = Clearance in male Sprague-Dawley rat at 2 mg/kg, iv measured for 0.083 to 12 hrs by LC-MS/MS analysis; format: ADME, organism-based; conditions: in vivo, time 0.083-12 hrs
[4] = molecular target: Programmed cell death 1 ligand 1 (Mus musculus) (UniProt Q9EP73); assay: Induction of PD-L1 degradation in mouse B16-F10 cells at 5 uM incubated for 24 hrs in presence of Bafilomycin A1 by Western blot analysis; format: cell-based
Chain of Programmed cell death 1 ligand 1 (Mus musculus) (Q9EP73 whole entry): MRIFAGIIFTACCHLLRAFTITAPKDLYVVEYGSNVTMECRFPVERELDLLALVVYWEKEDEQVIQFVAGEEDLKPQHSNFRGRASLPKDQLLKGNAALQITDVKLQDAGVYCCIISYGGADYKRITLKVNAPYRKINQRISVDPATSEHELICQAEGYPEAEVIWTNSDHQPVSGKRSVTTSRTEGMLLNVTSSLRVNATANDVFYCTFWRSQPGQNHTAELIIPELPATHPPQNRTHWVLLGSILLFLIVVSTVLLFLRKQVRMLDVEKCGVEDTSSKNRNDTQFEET

4T1 [5] = assay: Induction of DNA damage in mouse 4T1 cells assessed as increase in gamma-H2AX level at 2 uM incubated for 24 hrs by Western blot analysis; format: functional, cell-based
4T1 [6] = assay: Synergistic induction of DNA damage in mouse 4T1 cells implanted in mouse assessed as decrease in PARP level at 25 mg/kg/day in presence of olaparib by IHC analysis; format: functional, organism-based
4T1 [7] = assay: Induction of DNA damage in mouse 4T1 cells implanted in mouse assessed as decrease in PARP level at 50 mg/kg/day by immunofluorescence based analysis; format: functional, organism-based
[8] = Apparent volume of distribution in male Sprague-Dawley rat at 2 mg/kg, iv measured for 0.083 to 12 hrs by LC-MS/MS analysis; format: ADME, organism-based; conditions: in vivo, time 0.083-12 hrs, read-out: Vz
B16-F10 [9] = assay: Induction of antitumor immunity in mouse B16-F10 cells implanted in male C57BL/6J mouse assessed as increase in T cell infiltration at 50 mg/kg, IG treated for 14 days consecutively by immunofluorescence based analysis; format: functional, organism-based; conditions: time 14.0 day
[10] = VRT (0 to t) in male Sprague-Dawley rat at 20 mg/kg, po measured for 0.083 to 12 hrs by LC-MS/MS analysis; format: ADME, organism-based; conditions: in vivo, time 0.083-12 hrs
[11] = Half life in male Sprague-Dawley rat at 20 mg/kg, po measured for 0.083 to 12 hrs by LC-MS/MS analysis; format: ADME, organism-based; conditions: in vivo, time 0.083-12 hrs
[12] = Toxicity in male C57BL/6J mouse implanted with mouse B16-F10 cells assessed as histopathological damage in kidney at 25 mg/kg, IG treated for 14 days consecutively in presence of NP-19 by H and E staining based analysis; format: organism-based; conditions: in vivo, po, 336 h, time 14 day
[13] = Clast in male Sprague-Dawley rat at 20 mg/kg, po measured for 0.083 to 12 hrs by LC-MS/MS analysis; format: ADME, organism-based; conditions: in vivo, time 0.083-12 hrs
4T1 [14] = assay: Synergistic antitumor activity against mouse 4T1 cells implanted in mouse at 25 mg/kg/day in presence of olaparib relative to control; format: functional; conditions: read-out: TGI
[15] = molecular target: T1, Histone deacetylase 3 (Mus musculus) (UniProt O88895); assay: In vivo inhibition of HDAC3 in mouse B16-F10 cells implanted in male C57BL/6J mouse assessed as increase in Ac-H3 level at 50 mg/kg, IG treated for 14 days consecutively by immunofluorescence based analysis; format: functional, organism-based; conditions: time 14.0 day
T1 sequence (whole entry): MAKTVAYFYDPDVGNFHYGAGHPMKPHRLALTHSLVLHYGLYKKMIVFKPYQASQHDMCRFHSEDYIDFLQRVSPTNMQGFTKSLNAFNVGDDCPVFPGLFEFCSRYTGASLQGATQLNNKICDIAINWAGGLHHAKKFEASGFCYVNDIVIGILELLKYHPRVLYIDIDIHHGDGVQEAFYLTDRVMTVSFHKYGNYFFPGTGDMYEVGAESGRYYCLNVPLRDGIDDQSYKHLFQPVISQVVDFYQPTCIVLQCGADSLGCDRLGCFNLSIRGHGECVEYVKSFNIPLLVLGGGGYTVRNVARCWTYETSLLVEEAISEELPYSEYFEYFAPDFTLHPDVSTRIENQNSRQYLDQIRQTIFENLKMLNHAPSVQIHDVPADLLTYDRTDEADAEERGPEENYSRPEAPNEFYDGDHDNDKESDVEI

[16] = Apparent volume of distribution in male Sprague-Dawley rat at 20 mg/kg, po measured for 0.083 to 12 hrs by LC-MS/MS analysis; format: ADME, organism-based; conditions: in vivo, time 0.083-12 hrs
[17] = AUC (0 to t) in male Sprague-Dawley rat at 20 mg/kg, po measured for 0.083 to 12 hrs by LC-MS/MS analysis; format: ADME, organism-based; conditions: in vivo, time 0.083-12 hrs
4T1 [18] = assay: Synergistic induction of DNA damage in mouse 4T1 cells implanted in mouse assessed as increase in gamma-H2AX level at 25 mg/kg/day in presence of olaparib by immunofluorescence based analysis; format: functional, organism-based
[19] = Toxicity in male C57BL/6J mouse implanted with mouse B16-F10 cells assessed as histopathological damage in liver at 50 mg/kg, IG treated for 14 days consecutively by H and E staining based analysis; format: organism-based; conditions: in vivo, po, 336 h, time 14 day
[20] = Oral bioavailability in male Sprague-Dawley rat at 20 mg/kg measured for 0.083 to 12 hrs by LC-MS/MS analysis; format: ADME, organism-based; conditions: in vivo, time 0.083-12 hrs
[21] = Toxicity in male C57BL/6J mouse implanted with mouse B16-F10 cells assessed as histopathological damage in heart at 25 mg/kg, IG treated for 14 days consecutively in presence of NP-19 by H and E staining based analysis; format: organism-based; conditions: in vivo, po, 336 h, time 14 day
B16-F10 [22] = assay: Induction of antitumor immunity in mouse B16-F10 cells implanted in male C57BL/6J mouse assessed as CD3+CD4+ T cell infiltration at 25 mg/kg, IG treated for 14 days consecutively in presence of NP-19 by flow cytometry (reference value: 7.4 %); format: functional; conditions: time 14 day
[23] = Tmax in male Sprague-Dawley rat at 20 mg/kg, po measured for 0.083 to 12 hrs by LC-MS/MS analysis; format: ADME, organism-based; conditions: in vivo, time 0.083-12 hrs
B16-F10 [24] = assay: Induction of antitumor immunity in mouse B16-F10 cells implanted in male C57BL/6J mouse assessed as CD3+CD8+ T cell infiltration at 50 mg/kg, IG treated for 14 days consecutively by flow cytometry (reference value: 10 %); format: functional; conditions: time 14 day
[25] = molecular target: T1, Histone deacetylase 3 (Mus musculus); assay: In vivo inhibition of HDAC3 in mouse B16-F10 cells implanted in male C57BL/6J mouse assessed as decrease in PD-L1 level at 50 mg/kg, IG treated for 14 days consecutively by immunofluorescence based analysis; format: functional, organism-based; conditions: time 14.0 day
[26] = VRT (0 to infinity) in male Sprague-Dawley rat at 20 mg/kg, po measured for 0.083 to 12 hrs by LC-MS/MS analysis; format: ADME, organism-based; conditions: in vivo, time 0.083-12 hrs
4T1 [27] = assay: Synergistic induction of DNA damage in mouse 4T1 cells implanted in mouse assessed as decrease in PARP level at 25 mg/kg/day in presence of olaparib by Western blot analysis; format: functional, organism-based
[28] = MRT (0 to infinity) in male Sprague-Dawley rat at 2 mg/kg, iv measured for 0.083 to 12 hrs by LC-MS/MS analysis; format: ADME, organism-based; conditions: in vivo, time 0.083-12 hrs

CCCNNC(=O)CCCCCCNC(=O)c1cnc(-c2ccc(NC(=O)OC(C)(C)C)cc2)s1
inhibition in vivo at 25 mg/kg (B16-F10 [1]): 65%
Activity [2]: Non-toxic
clearance [3]: 53.8 mL/min/kg
Activity [4]: inactive
Activity (4T1 [5]): Active
Activity (4T1 [6]): Active
Activity (4T1 [7]): Active
Vd [8]: 10.6 L/kg
Activity (B16-F10 [9]): Active
VRT(t) [10]: 6.38 h²
half-life [11]: 170 min
Activity [12]: Non-toxic
Clast [13]: 0.27 ng/mL
inhibition in vivo at 25 mg/kg/day (4T1 [14]): 88%
inhibition [15]: Active
Vz [16]: 2785.62 L/kg
AUC(0-t) [17]: 30.8 ng·h/mL
Activity (4T1 [18]): Active
Activity [19]: Non-toxic
bioavailability [20]: 0.49%
Activity [21]: Non-toxic
Activity (B16-F10 [22]): 28%
Tmax [23]: 43.2 min
Activity (B16-F10 [24]): 22%
inhibition [25]: Active
VRT [26]: 14.7 h²
Activity (4T1 [27]): Active
MRT inf [28]: 22.2 min
